# Results as given in patent US20230190650A1 (The University of North Carolina at Chapel Hill, priority 2020, published 2023).
# Counter-ions that a name gives are not always drawn.
# Key:
# [1] = Description: (§1) Identical samples were prepared with 0.5 g/L EDTA added as preservative). These aliquots were quantified by HPLC, alongside aliquots of the formulation (both with and without EDTA) treated in the same manner, which were dissolved in ethanol immediately before quantification.
# (§2) The column was a YMC-Pack Pro C18 column (3 µm particle size, 120 Å pore size, 4.6 x 150 mm) and mobile phase was 30 mM potassium phosphate, 0.16% trimethylamine, adjusted to pH 4.9 with phosphoric acid, 30% Acetonitrile.
# (§3) “Fridge” samples stored at 4° C., “Heat” at 40° C., “Light” on bench in clear vials. An “E” after the storage condition indicates samples with 5 g/L EDTA added as preservative.
# [2] = local anesthetic activity profile; cited from earlier work
# [3] = Partitioning of small molecules between aqueous phase and oily eutectic; assay type: physicochemical; conditions: after 10 minutes of mixing; 0.5 g/L bupivacaine-HCl, 5 g/L chlorobutanol, 25 g/L benzyl alcohol
# [4] = In vitro dissolution testing of LBB-111 (release into PBS from 3D printed socket); assay type: physicochemical; conditions: from LBB-111; PBS pH 7.4, 37° C.
# Description: As a first step to approximate release properties of LBB-111, we performed in vitro dissolution testing under various conditions. […] Mixing was accomplished using the smaller “mini” spin paddles at 59 rpm. Dissolution media [900 mL Phosphate buffered saline (PBS), pH 7.4] was equilibrated at 37° C. overnight before the start of a run. To mimic a human molar socket, cylindrical chambers with internal dimensions approximately 1 cm tall and 1 cm in diameter, with a high infill base to give the socket weight and stability were 3D printed at the UNC BeAM […] using an Ultimaker 3. Sockets were filled to the rim with formulation using an 18 g needle, and the formulation weight (around 0.8 g for these sockets) was recorded. The flat base of the socket was placed on the bottom of each dissolution chamber and mixing initiated. […] Referring now to FIG. 6, the graph illustrates drug released into PBS medium plotted as the fraction of the total that was present in the formulation at the start (% released). […] Formulation samples were dissolved in 19-times their weight (final conc. 5% wt) 200-proof ethanol, the ethanol dissolved samples were then diluted 5-fold into distilled water, and 10 μL of this dilution was injected.
# [5] = cited from earlier work; for logD7.4: pH 7.4
# [6] = Stability of drugs in the anesthetic formulation (HPLC); assay type: physicochemical; conditions: eutectic emulsion formulation
# Description: as §1, §2, §3
Structure (SMILES),presence in the aqueous phase after mixing with the eutectic [3],relative release rate [4],"time to becoming undetectable in solution ([1]; saliva analogue buffer, light or heat (40° C.) conditions, without EDTA) [days]",degradation in the formulation without EDTA [6],degradation in solution [1],"degradation in solution, Heat sample with EDTA [1]",Duration [2],Onset [2],Potency [2],logP [5],logD7.4 [5],pKa [5]
CCN(CC)CC(=O)Nc1c(C)cccc1C [Lidocaine],,,,,almost undetectable,some lidocaine degradation,Moderate,Fast,Medium,,,
OCc1ccccc1 [benzyl alcohol],undetectable,,,,,,,,,,,

# More lines, main results first:
presence in the aqueous phase after mixing with the eutectic [3],relative release rate [4],"time to becoming undetectable in solution ([1]; saliva analogue buffer, light or heat (40° C.) conditions, without EDTA) [days]",degradation in the formulation without EDTA [6],Structure (SMILES),degradation in solution [1],"degradation in solution, Heat sample with EDTA [1]",Duration [2],Onset [2],Potency [2],logP [5],logD7.4 [5],pKa [5]
,slowest,,,CCCCN1CCCCC1C(=O)Nc1c(C)cccc1C (stereo not shown) [Bupivacaine],,,Long,Moderate,High,3.41,2.39,
undetectable,,,,"CCCCN1CCCCC1C(=O)Nc1c(C)cccc1C (stereo not shown) [bupivacaine-HCl, bupivacaine hydrochloride]",,,,,,,,
,fastest,≤ 10,lack of benzocaine degradation,CCOC(=O)c1ccc(N)cc1 [Benzocaine],almost undetectable,,Short,Fast,Low,,1.86,2.8
